Experimental data published in patent US10508085B2, “Compounds and methods for IDO and TDO modulation, and indications therefor” (Plexxikon Inc., priority 2016, dated 2019).

Key:
[1] = biological target: T1, Human Indoleamine 2,3-dioxygenase (IDO) (Homo sapiens, UniProt P14902); assay: Human IDO enzymatic assay (kynurenine level); assay type: biochemical; conditions: 6 nM IDO, 10 μM L-Trp; geometric mean; read-out: IDO1 GMean: IC50 (μM) (Biochemical Assay)
T1 construct: His tag (N); made in house; host or cells: E. coli
T1 sequence (P14902 whole entry): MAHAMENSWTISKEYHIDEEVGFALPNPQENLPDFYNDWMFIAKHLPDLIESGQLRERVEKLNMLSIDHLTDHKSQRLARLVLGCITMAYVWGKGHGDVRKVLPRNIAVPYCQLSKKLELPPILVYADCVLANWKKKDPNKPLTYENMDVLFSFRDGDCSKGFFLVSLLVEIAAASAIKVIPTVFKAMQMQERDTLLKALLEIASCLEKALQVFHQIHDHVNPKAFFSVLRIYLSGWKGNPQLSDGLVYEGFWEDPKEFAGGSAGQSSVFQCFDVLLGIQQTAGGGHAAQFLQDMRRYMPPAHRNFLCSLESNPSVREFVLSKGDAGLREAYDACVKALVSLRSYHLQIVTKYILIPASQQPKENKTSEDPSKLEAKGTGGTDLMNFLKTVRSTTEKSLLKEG
Outline: (§1)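 Reactions were stopped with TCA, converting N-formylkynurenine to kynurenine for quantitation, with IC50 by nonlinear regression. IDO: 6 nM enzyme, 10 μM L-Trp, 20 min RT. TDO: 1 nM enzyme, 350 μM L-Trp, 70 min RT, both in pH 6.5 buffer.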

[2] = biological target: T2, Human Tryptophan 2,3-dioxygenase (TDO) (Homo sapiens, UniProt P48775); assay: Human TDO enzymatic assay (kynurenine level); assay type: biochemical; conditions: 1 nM TDO, 350 μM L-Trp; geometric mean; read-out: TDO GMean: IC50 (μM) (Biochemical Assay)
T2 construct: His tag (N); made in house; host or cells: E. coli
T2 sequence (P48775 whole entry): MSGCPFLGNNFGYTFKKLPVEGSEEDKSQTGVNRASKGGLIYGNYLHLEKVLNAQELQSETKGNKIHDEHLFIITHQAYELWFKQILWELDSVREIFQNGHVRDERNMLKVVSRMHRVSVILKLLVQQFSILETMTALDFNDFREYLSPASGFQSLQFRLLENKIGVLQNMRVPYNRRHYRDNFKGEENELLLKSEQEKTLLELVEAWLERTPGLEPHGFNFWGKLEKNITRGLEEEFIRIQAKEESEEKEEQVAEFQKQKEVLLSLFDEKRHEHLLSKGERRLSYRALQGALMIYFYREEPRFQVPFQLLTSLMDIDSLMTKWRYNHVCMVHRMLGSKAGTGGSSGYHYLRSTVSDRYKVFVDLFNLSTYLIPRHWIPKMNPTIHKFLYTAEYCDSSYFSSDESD
Outline: as §1

[3] = biological target: T3, human IDO (IDO1-expressing HEK293 cells) (Homo sapiens, UniProt P14902); assay: Cell based kynurenine assay, IDO1-expressing HEK293 cell clones; conditions: IDO1-expressing HEK293 cells, 24 hours, geometric mean; read-out: HEK293 IDO1 Kynurenine GMean IC50 (μM) (Cellular Assay)
T3 construct: expressed in transfected cells
T3 sequence (P14902 whole entry): as the sequence (P14902 whole entry) above
Outline: (§2)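 IC50 values come from nonlinear regression of kynurenine reduction in supernatants of human IDO1- or TDO-expressing HEK293 cells incubated 24 h with serially diluted compounds, normalised to cell and media-only controls containing 0.2% DMSO.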

[4] = biological target: T4, human TDO (TDO-expressing HEK293 cells) (Homo sapiens, UniProt P48775); assay: Cell based kynurenine assay, TDO-expressing HEK293 cell clones; conditions: TDO-expressing HEK293 cells, 24 hours, geometric mean; read-out: HEK293 TDO Kynurenine GMean IC50 (μM) (Cellular Assay)
T4 construct: expressed in transfected cells
T4 sequence (P48775 whole entry): as the sequence (P48775 whole entry) above
Outline: as §2

| SMILES | IC50 [1] [µM] | IC50 [2] [µM] | IC50 [3] [µM] | IC50 [4] [µM] |
| --- | --- | --- | --- | --- |
| O=C(CN1CCS(=O)(=O)CC1)N1CCC(C(F)(F)C(O)c2cc(Cl)cc3cn[nH]c23)CC1 (stereo not shown) [Compound P-0485, 1-(4-(2-(5-chloro-1H-indazol-7-yl)-1,1-difluoro-2-hydroxyethyl)piperidin-1-yl)-2-(1,1-dioxidothiomorpholino) ethan-1-one] | 0.0001 to 10 | 0.0001 to 10 | 0.0001 to 10 | > 10 |
| CC(C)(C1CCN(C(=O)CN2CCCS2(=O)=O)CC1)C(O)c1cc(Cl)cc2cn[nH]c12 (stereo not shown) [Compound P-0486, 1-(4-(1-(5-chloro-1H-indazol-7-yl)-1-hydroxy-2-methylpropan-2-yl)piperidin-1-yl)-2-(1,1-dioxidoisothiazolidin-2-yl)ethan-1-one] | 0.0001 to 10 | 0.0001 to 10 | 0.0001 to 10 | 0.0001 to 10 |
| CC(C)(C1CCN(C(=O)CN2CCS(=O)(=O)CC2)CC1)C(O)c1cc(Cl)cc2cn[nH]c12 (stereo not shown) [Compound P-0487, 1-(4-(1-(5-chloro-1H-indazol-7-yl)-1-hydroxy-2-methylpropan-2-yl)piperidin-1-yl)-2-(1,1-dioxidothiomorpholino) ethan-1-one] | 0.0001 to 10 | 0.0001 to 10 | 0.0001 to 10 | 0.0001 to 10 |
| O=C(Nc1cccc(Cl)c1)N1CCC(C(F)(F)C(O)c2cc(Cl)cc3cn[nH]c23)CC1 (stereo not shown) [Compound P-0488, 4-(2-(5-chloro-1H-indazol-7-yl)-1,1-difluoro-2-hydroxyethyl)-N-(3-chlorophenyl) piperidine-1-carboxamide] | 0.0001 to 10 | 0.0001 to 10 | 0.0001 to 10 | 0.0001 to 10 |
| O=C(CN1CCCS1(=O)=O)N1CCC(C(F)(F)C(O)c2cc(Cl)cc3cn[nH]c23)CC1 (stereo not shown) [Compound P-0489, 1-(4-(2-(5-chloro-1H-indazol-7-yl)-1,1-difluoro-2-hydroxyethyl)piperidin-1-yl)-2-(1,1-dioxidoisothiazolidin-2-yl)ethan-1-one] | 0.0001 to 10 | 0.0001 to 10 | 0.0001 to 10 | 0.0001 to 10 |
| CC(C)(C)OC(=O)N1CCC(C(F)(F)C(O)c2c3c(cc4cn[nH]c24)CC3)CC1 (stereo not shown) [Compound P-0490, tert-butyl 4-(2-(5,6-dihydro-1H-cyclobuta[f]indazol-7-yl)-1,1-difluoro-2-hydroxyethyl) piperidine-1-carboxylate] | 0.0001 to 10 | 0.0001 to 10 | 0.0001 to 10 | 0.0001 to 10 |
| CN1CCN(Cc2ccc(NC(=O)N3CCC(C(C)(C)C(O)c4cc(Cl)cc5cn[nH]c45)CC3)cc2)CC1 (stereo not shown) [Compound P-0491, 4-(1-(5-chloro-1H-indazol-7-yl)-1-hydroxy-2-methylpropan-2-yl)-N-(4-((4-methylpiperazin-1-yl)methyl)phenyl) piperidine-1-carboxamide] | 0.0001 to 10 | 0.0001 to 10 | 0.0001 to 10 | 0.0001 to 10 |
| CC(C)(C1CCN(C(=O)NCCN2CCCS2(=O)=O)CC1)C(O)c1cc(Cl)cc2cn[nH]c12 (stereo not shown) [Compound P-0492, 4-(1-(5-chloro-1H-indazol-7-yl)-1-hydroxy-2-methylpropan-2-yl)-N-(2-(1,1-dioxidoisothiazolidin-2-yl)ethyl)piperidine-1-carboxamide] | 0.0001 to 10 | 0.0001 to 10 | 0.0001 to 10 | 0.0001 to 10 |
| CC(C)(C1CCN(C(=O)NCCNS(C)(=O)=O)CC1)C(O)c1cc(Cl)cc2cn[nH]c12 (stereo not shown) [Compound P-0493, 4-(1-(5-chloro-1H-indazol-7-yl)-1-hydroxy-2-methylpropan-2-yl)-N-(2-(methylsulfonamido)ethyl)piperidine-1-carboxamide] | 0.0001 to 10 | 0.0001 to 10 | 0.0001 to 10 | 0.0001 to 10 |
| O=C(Cc1ccc(Cl)cc1)N1CCC(C(F)(F)C(O)c2cc(Cl)cc3cn[nH]c23)CC1 (stereo not shown) [Compound P-0494, 1-(4-(2-(5-chloro-1H-indazol-7-yl)-1,1-difluoro-2-hydroxyethyl)piperidin-1-yl)-2-(4-chlorophenyl)ethan-1-one] | 0.0001 to 10 | 0.0001 to 10 | 0.0001 to 10 | 0.0001 to 10 |
| O=C(Cc1ccc(Cl)nc1)N1CCC(C(F)(F)C(O)c2cc(Cl)cc3cn[nH]c23)CC1 (stereo not shown) [Compound P-0495, 1-(4-(2-(5-chloro-1H-indazol-7-yl)-1,1-difluoro-2-hydroxyethyl)piperidin-1-y1)-2-(6-chloropyridin-3-yl)ethan-1-one] | 0.0001 to 10 | 0.0001 to 10 | 0.0001 to 10 | 0.0001 to 10 |
| COc1ccc(CC(=O)N2CCC(C(F)(F)C(O)c3cc(Cl)cc4cn[nH]c34)CC2)cc1 (stereo not shown) [Compound P-0496, 1-(4-(2-(5-chloro-1H-indazol-7-yl)-1,1-difluoro-2-hydroxyethyl)piperidin-1-yl)-2-(4-methoxyphenyl) ethan-1-one] | 0.0001 to 10 | 0.0001 to 10 | 0.0001 to 10 | 0.0001 to 10 |
| CC(C)(C1CCN(C(=O)CN2CCS(=O)(=O)CC2)CC1)[C@H](O)c1cc(Cl)cc2cn[nH]c12 [Compound P-0497, (S)-1-(4-(1-(5-chloro-1H-indazol-7-yl)-1-hydroxy-2-methylpropan-2-yl)piperidin-l-yl)-2-(1,1-dioxidothiomorpholino) ethan-1-one] | 0.0001 to 10 | 0.0001 to 10 | 0.0001 to 10 | 0.0001 to 10 |
| CC(C)(C1CCN(C(=O)C2CCC2)CC1)[C@H](O)c1cc(Cl)cc2cn[nH]c12 [Compound P-0498, (S)-(4-(1-(5-chloro-1H-indazol-7-yl)-1-hydroxy-2-methylpropan-2-yl)piperidin-1-yl)(cyclobutyl)methanone] | 0.0001 to 10 | 0.0001 to 10 | 0.0001 to 10 | 0.0001 to 10 |
| CC(C)(C1CCN(C(=O)NCCO)CC1)[C@H](O)c1cc(Cl)cc2cn[nH]c12 [Compound P-0499, (S)-4-(1-(5-chloro-1H-indazol-7-yl)-1-hydroxy-2-methylpropan-2-yl)-N-(2-hydroxyethyl)piperidine-1-carboxamide] | 0.0001 to 10 | 0.0001 to 10 | 0.0001 to 10 | 0.0001 to 10 |
| CC(C)(C1CCN(C(=O)CN2CCOCC2)CC1)[C@H](O)c1cc(Cl)cc2cn[nH]c12 [Compound P-0501, (S)-1-(4-(1-(5-chloro-1H-indazol-7-yl)-1-hydroxy-2-methylpropan-2-yl)piperidin-1-yl)-2-morpholinoethan-1-one] | 0.0001 to 10 | 0.0001 to 10 | 0.0001 to 10 | 0.0001 to 10 |
| CC(C)(C1CCN(C(=O)CC2CCS(=O)(=O)CC2)CC1)[C@H](O)c1cc(Cl)cc2cn[nH]c12 [Compound P-0502, (S)-1-(4-(1-(5-chloro-1H-indazol-7-yl)-1-hydroxy-2-methylpropan-2-yl)piperidin-1-yl)-2-(1,1-dioxidotetrahydro-2H-thiopyran-4-yl)ethan-1-one] | 0.0001 to 10 | 0.0001 to 10 | 0.0001 to 10 | 0.0001 to 10 |
| CC(C)(C1CCN(C(=O)Nc2ccc(C#N)cc2)CC1)[C@H](O)c1c(F)c(Cl)cc2cn[nH]c12 [Compound P-0503, (S)-4-(1-(5-chloro-6-fluoro-1H-indazol-7-yl)-1-hydroxy-2-methylpropan-2-yl)-N-(4-cyanophenyl) piperidine-1-carboxamide] | 0.0001 to 10 | 0.0001 to 10 | 0.0001 to 10 | 0.0001 to 10 |
| CC(C)(C1CCN(C(=O)C2CC2)CC1)[C@H](O)c1c(F)c(Cl)cc2cn[nH]c12 [Compound P-0504, (S)-(4-(1-(5-chloro-6-fluoro-1H-indazol-7-yl)-1-hydroxy-2-methylpropan-2-yl)piperidin-1-yl)(cyclopropyl) methanone] | 0.0001 to 10 | 0.0001 to 10 | 0.0001 to 10 | 0.0001 to 10 |
| CC(C)(C1CCN(C(=O)CC#N)CC1)[C@H](O)c1c(F)c(Cl)cc2cn[nH]c12 [Compound P-0505, (S)-3-(4-(1-(5-chloro-6-fluoro-1H-indazol-7-yl)-1-hydroxy-2-methylpropan-2-yl)piperidin-1-yl)-3-oxopropanenitrile] | 0.0001 to 10 | 0.0001 to 10 | 0.0001 to 10 | 0.0001 to 10 |
| COCC(=O)N1CCC(C(C)(C)[C@H](O)c2c(F)c(Cl)cc3cn[nH]c23)CC1 [Compound P-0506, (S)-1-(4-(1-(5-chloro-6-fluoro-1H-indazol-7-yl)-1-hydroxy-2-methylpropan-2-yl)piperidin-1-yl)-2-methoxyethan-1-one] | 0.0001 to 10 | 0.0001 to 10 | 0.0001 to 10 | 0.0001 to 10 |
| CC(C)(C1CCN(C(=O)C2CCOCC2)CC1)[C@H](O)c1c(F)c(Cl)cc2cn[nH]c12 [Compound P-0507, (S)-(4-(1-(5-chloro-6-fluoro-1H-indazol-7-yl)-1-hydroxy-2-methylpropan-2-yl)piperidin-1-yl)(tetrahydro-2H-pyran-4-yl)methanone] | 0.0001 to 10 | 0.0001 to 10 | 0.0001 to 10 | 0.0001 to 10 |
